Patent publication US8455620B2, “Cloning and expression of a novel phytase” (Feed Research Institute Chinese Academy of Agricultural …, priority 2006, dated 2013)
Entries after “also recorded” stand apart in the source; their conditions may differ. Read-outs that look alike come from different tables or passages of the source.

Legend:
r-AppA = type: biochemical, Yersinia intermedia; details: 1 mM, pH 4.5
trypsin = test: Protease resistance of r-AppA, incubation with trypsin; type: biochemical; details: 0.025 mg/ml phytase, 0.1 mg/ml trypsin, 37° C., 5 min to 2 h
Description: (§1) To determine the protease resistance, the purified phytase (0.025 mg/ml) was incubated with 0.1 mg/ml of pepsin and trypsin at 37° C. And then, sample incubated was collected respectively at 5 min, 10 min, 20 min, 30 min, 1 h, and 2 hs.

[1] = Specific activity of purified r-AppA, ferrous sulfate-molybdenum blue method; type: biochemical; details: r-AppA purified through Sephacryl S-200; pH 4.5; protein by Lowry method
Description: A total of 72 transformants were analyzed for phytase activity by ferrous sulfate-molybdenum blue method. 950 μl of substrate solution (4 mM sodium phytase in 0.25M sodium acetate buffer, pH5.0) was added to 50 μl diluted enzyme solution, which was reacted at 37° C. for 30 minutes. Then, 1 mL of 10% TCA (trichloroacetic acid) solution was added to stop the reaction. As a control, TCA solution was added into the enzyme solution to inactivate the enzyme and then substrate solution was added. After the reaction has terminated, 2 mL of reagent C (0.576M acid sulfate, 1% ammonium molybdate, 7.32% Ferrous sulfate.7H2O) was added, and left for 10 minutes. The intensity of the blue color was measured at 700 nm, and activities in enzyme solution and in a control were measured. 1 unit of phytase activity was determined to be the enzyme amount releasing 1 μmol of phosphate for 1 minute. […]
In order to determinate the specific activity, the concentration of the r-AppA purified through Sephacryl S-200 was determined by the Lowry method, and the enzyme activity of the r-AppA purified was determined by ferrous sulfate-molybdenum blue method at pH 4.5. As a result, the specific activity of r-AppA purified was 3960±248 U/mg, which is the highest specific activity, comparing to other phytases recorded previously.

pH stability of r-AppA = type: physicochemical; details: 37° C.
Description: (§2) The r-AppA purified through Sephacryl S-200 was investigated an enzyme activity of phytase, according to temperature and pH. The effect of pH on phytase activity was determined using the following buffer solutions: glycine-HCl, pH 1.5-3.5; Na acetate-acetic acid, pH 3.5-6.0; Tris-HCl, pH 6.0-8.5, and glycine-NaOH, pH 8.5-10. All buffers used for dilution contained 0.05% BSA and 0.05% Triton. As is shown in FIG. 2, the enzyme activity varied with pH. […] 70% of the enzyme activity was still maintained at pH 2.5, and 65% of the enzyme activity was still maintained at pH 5.5. […] And over 70% activity still remained at pH 1.0-2.0.

[2] = Enzyme activity of r-AppA according to temperature and pH; type: biochemical
Description: A total of 72 transformants were analyzed for phytase activity by ferrous sulfate-molybdenum blue method. 950 μl of substrate solution (4 mM sodium phytase in 0.25M sodium acetate buffer, pH5.0) was added to 50 μl diluted enzyme solution, which was reacted at 37° C. for 30 minutes. Then, 1 mL of 10% TCA (trichloroacetic acid) solution was added to stop the reaction. As a control, TCA solution was added into the enzyme solution to inactivate the enzyme and then substrate solution was added. After the reaction has terminated, 2 mL of reagent C (0.576M acid sulfate, 1% ammonium molybdate, 7.32% Ferrous sulfate.7H2O) was added, and left for 10 minutes. The intensity of the blue color was measured at 700 nm, and activities in enzyme solution and in a control were measured. 1 unit of phytase activity was determined to be the enzyme amount releasing 1 μmol of phosphate for 1 minute. Two days after methanol induction, 11 transformants out of 72 produced phytase activity from 48 to 270 U/mL of medium. Obviously, the ORF obtained above, was a novel gene, which encoded a polypeptide with phytase activity. The polypeptide with phytase activity, which encoded by mature region of OFR, was named r-AppA.
as §2
(§3) As is shown in FIG. 3A, the enzyme activity varied with temperature. The temperature optima were determined at the pH optimum (pH 4.5) ranging the temperature values from 20 to 80° C. […] As is shown in FIG. 3B, when the enzyme was left at 80° C. for 10 minutes, over 50% of the activity was remained, and 40% of the activity was remained, at 80° C. for 1 hour. Compared to AppA from E. coli, which was widely used in feed industry as a feed additive, the r-AppA are higher stability at higher temperatures.

pepsin = test: Protease resistance of r-AppA, incubation with pepsin; type: biochemical; details: 0.025 mg/ml phytase, 0.1 mg/ml pepsin, 37° C., 5 min to 2 h
Description: as §1

[3] = Heat stability of r-AppA at 80° C.; type: physicochemical
Description: as §3

## [Ag+] [Ag]
r-AppA
  Enzyme activity of r-AppA (control = 100): 84

## [Ca+2] [Ca]
r-AppA
  Enzyme activity of r-AppA (control = 100): 98

## [Co+2] [Co]
r-AppA
  Enzyme activity of r-AppA (control = 100): 93

## [Cu+2] [Cu]
r-AppA
  Enzyme activity of r-AppA (control = 100): 61
r-AppA; listed as Cu^2+
  effect on enzyme activity of r-AppA, in words: obviously inhibited; also recorded: strongly inhibited

## O=C(O)CN(CCN(CC(=O)O)CC(=O)O)CC(=O)O [EDTA]
r-AppA
  Enzyme activity of r-AppA (control = 100): 101
  effect on enzyme activity of r-AppA, in words: not significantly changed

## [Fe+2] [Fe]
r-AppA
  Enzyme activity of r-AppA (control = 100): 47
r-AppA; listed as Fe^2+
  effect on enzyme activity of r-AppA, in words: obviously inhibited; also recorded: strongly inhibited

## [K+] [K]
r-AppA
  Enzyme activity of r-AppA (control = 100): 99

## [Li+] [Li]
r-AppA
  Enzyme activity of r-AppA (control = 100): 95

## [Mg+2] [Mg]
r-AppA
  Enzyme activity of r-AppA (control = 100): 94

## [Mn+2] [Mn]
r-AppA
  Enzyme activity of r-AppA (control = 100): 104
  effect on enzyme activity of r-AppA, in words: weakly enhanced

## [Na+] [Na]
r-AppA
  Enzyme activity of r-AppA (control = 100): 95

## [Ni+2] [Ni]
r-AppA
  Enzyme activity of r-AppA (control = 100): 98

## CCCCCCCCCCCCOS(=O)(=O)[O-].[Na+] [SDS]
r-AppA
  Enzyme activity of r-AppA (control = 100): 9
  effect on enzyme activity of r-AppA, in words: almost lost

## [Zn+2] [Zn]
r-AppA
  Enzyme activity of r-AppA (control = 100): 44
r-AppA; listed as Zn^2+
  effect on enzyme activity of r-AppA, in words: obviously inhibited; also recorded: strongly inhibited

## r-AppA: polypeptide with phytase activity encoded by mature region of the ORF from Yersinia intermedia H-27, expressed in Pichia pastoris (SEQ ID NO: 3)
trypsin
  phytase activity after incubation with trypsin: not significantly changed
trypsin; listed as phytase
  phytase activity after incubation with trypsin: strong resistance
[1]
  specific activity: 3960±248 U/mg
pH stability of r-AppA; pH 1.0-2.0, 2 hours
  activity remained (pH stability): over 70%
pH stability of r-AppA; pH 2.5-10, 2 hours
  activity remained (pH stability): over 85%
[2]; at pH 2.5
  enzyme activity maintained (relative to maximum): 70%
[2]; at pH 4.5, 20 to 80° C.
  temperature of highest activity (optimal temperature): 55 °C
[2]; at pH 5.5
  enzyme activity maintained (relative to maximum): 65%
[2]; buffers pH 1.5-10
  pH of highest activity (optimal pH): 4.5
pepsin
  phytase activity after incubation with pepsin: not significantly changed
pepsin; listed as phytase
  phytase activity after incubation with pepsin: strong resistance
[3]; 80° C. for 10 minutes
  activity remained (heat stability): over 50%
[3]; 80° C. for 1 hour
  activity remained (heat stability): 40%
